# Test results reported in patent US20220054496A1, “MODULATION OF TRF1 FOR BRAIN CANCER TREATMENT” (Fundación Del Sector Público Estatal Centro Nacional De …, priority 2018, published 2022).
# Entries after “also recorded” stand apart in the source; their conditions may differ.
# Tests used:
# h543 GSCs = test: Sphere formation assay in patient-derived h543 GSCs; assay type: cell-based, human; details: for diameter of spheres / number of spheres: vs untreated controls; for sphere formation, dose-response: 7 days
# Method: (§1) FIG. 48. […] (A) Dose-response curves of the h676 GSCs treated 7 days with the indicated compounds. (B) Dose-response curves of the h543 GSCs treated 7 days with the indicated compounds. Data are represented as mean±SD.
# (§2) Spheres were dissociated into single cells and seeded at a density of 50, 100, 200 and 400 cells/well in a 96 well plate. Neurosphere number was assessed after 7 days. Pictures were taken using Nikon Eclipse Ti-U microscope and neurosphere diameter was measured using NIS Elements BR software.
# (§3) Given the promising results the present inventors obtained with the TRF1 chemical modulators in the U251 GBM cell line, the present inventors next set to address the effects of these compounds in two independent patient-derived primary GSCs (h543 and h676) cultures.
# (§4) Next, the present inventors set to address whether the different compounds were able to block sphere formation in the h676 and h543 GSCs.
# h676 GSCs [1] = test: Sphere formation assay in patient-derived h676 GSCs; assay type: cell-based, human; details: for diameter of spheres / number of spheres: vs untreated controls; for sphere formation, dose-response: 7 days
# Method: as §1, §2, §3, §4
# TRF1 [2] = test: Western blot of total TRF1 protein in U251 cells; assay type: cell-based, human; details: 10 μM, 24 h or 48 hr
# Method: (§5) Nuclear protein extracts were obtained using Nuclear Cytosolic Fractionation Kit (Biovision) and protein concentration was determined using the Bio-Rad DC Protein Assay (Bio-Rad). Up to 15 μg of protein per extract were separated in SDS-polyacrylamide gels by electrophoresis. After protein transfer onto nitrocellulose membrane (Whatman), the membranes were incubated with the indicated antibodies. Antibody binding was detected after incubation with a secondary antibody coupled to horseradish peroxidase using chemiluminescence with ECL detection KIT (GE Healthcare)
# Quantifications: Protein-band intensities were measured with ImageJ software and normalized against the loading control.
# (§6) For in vitro studies, ETP-47228 ETP-47037 and ETP-50946 were dissolved in DMSO at a final concentration of 10 or 5 mM. Cells were treated at a concentration of 10 μM for 24 h or 48 hr.
# (§7) To address whether these small molecules could represent a new therapeutic strategy for the treatment of GBM, the present inventors first tested the ability of the three independent TRF1 inhibitory molecules (ETP-47228, ETP-47037 and ETP-50946) to downregulate TRF1 protein levels in the U251 human GBM cell line.
# U251 cells = test: Neurosphere formation assay in U251 cells; assay type: cell-based, human; details: U251 in NSC media; seven days; vs DMSO
# Method: as §2
# Finally, the present inventors checked if the three chemical compounds had the ability to reduce sternness in these cells. They cultured U251 cells with NSC media in order to obtain a suspension culture enriched in stem cells. The inventors performed a sphere formation assay with these cells treated with ETP-47228, ETP-47037 and ETP-50946 or DMSO for seven days. […] Of note, all these effects recapitulated what the present inventors observed with Trf1 genetic downregulation (See 2.2).
# TRF1 [3] = test: TRF1 nuclear immunofluorescence (TRF1 foci) in U251 cells; assay type: cell-based, human; details: 10 μM, 24 h or 48 hr
# Method: For immunofluorescence analyses, cells were plated in a proper density in cell culture μCLEAR plates (Greiner) and fixed in 4% formaldehyde in PBS. Cells were permeabilized with 0.25% Triton in PBS and blocked with 5% BSA in PBS. Tissue sections were fixed in 10% buffered formalin (Sigma) and embedded in paraffin. After deparaffinization and citrate antigen retrieval, sections were permeabilized with 0.5% Triton in PBS and blocked with 1% BSA and 10% Australian FBS ([…]) in PBS. The antibodies were applied overnight in antibody diluents with background reducing agents (Invitrogen).
# Immunofluorescence images were obtained using a confocal ultraspectral microscope (Leica TCS-SP5) or the Opera High Content Screening (HCS) system (Perkin Elmer). Quantifications were performed with Definiens software.
# as §6, §7
# p-AKT = p-AKT activation (p-AKT/AKT western blot) in h676 GSCs; assay type: cell-based, human; details: 1 μM, 24 h
# Method: FIG. 47. […] Western Blot (up) and quantification (down) of p-AKT/AKT ratio in the h676 GSCs after 24 h treatment with 1 μM of the indicated compounds. Data are represented as mean±SD. n represents biological replicates.
# The present inventors have confirmed the modulation of TRF1 through the PI3K-AKT pathway (Méndez-Pertuz et al., 2017). In order to check whether the novel compounds act independently of this pathway, the present inventors treated the cells for 24 h at 1 μM concentration and checked p-AKT activation. They also included in this analysis some compounds previously identified by the same research group: namely ETP-47037 (PI3Ki) (García-Beccaria et al., 2015), and ETP-50946 (FIG. 47, right graph of the lower part).
# TRF1 [4] = test: Screening of ETP-antitumoral library / phenotypic assay of TRF1 levels in CHA-9.3 cells; assay type: cell-based, mouse; details: for inhibition of TRF1 protein levels / TRF1 modulation in the screening: CHA-9.3 mouse lung cancer cell line, 1 μM, 24 h; for modulation of TRF1 levels by tubulin agents (validation): immunofluorescence
# Method: All of them were tested at 1 μM during 24 h in the phenotypic assay that measure TRF1 levels.
# TRF1 [5] = test: Western blot of TRF1 protein levels in h676 GSCs; assay type: cell-based, human; details: 1 μM, 24 h
# Method: FIG. 46. Screening of ETP-antitumoral library: Identification of TRF1 modulators in compounds approved by FDA or in clinical trials. (A) Drugs in ETP-antitumoral library distribution in Reactome Pathways. (B) Opera High ContentScreening system was used to identify compounds with the ability to inhibit TRF1, from representative images of confocal validation obtained from cells treated with DMSO (upper photograph of the right side of the panel and b) 1 μM of the tested compound, and determining the signal corresponding to TRF1 foci; TRF1 foci (green signal) can be appreciated clearly in the upper on the nuclear staining with DAPI (blue signal), but they have decreased in the lower photograph. (C) Representation of the inhibition of TRF1 levels by drugs belonging to different signaling pathways that modulate TRF1 at telomeres. Bar fillings vary depending on the signaling pathway. The results corresponding to three PI3K inhibitors inside the ETP-antitumoral library are represented by the three first bars from the right, validating the screening. (D) Structurally diverse MEK inhibitors tested in the chemical biology validation of the MEK/ERK pathway as modulator of TRF1 levels. (E) Structurally diverse ERK inhibitors tested in the chemical biology validation of the MEK/ERK pathway as modulator of TRF1 levels. (F) Inhibition of TRF1 levels by the MEK and ERK inhibitors represented in (D) and (E), respectively, measured by immunofluorescence. (G) Structurally diverse HSP90 inhibitors tested in the chemical biology validation of HSP90 pathway as modulator of TRF1 levels. (H) Inhibition of TRF1 levels by the HSP90 inhibitors represented in (G), measured by immunofluorescence. (I) Structurally diverse tubulin agent tested in the chemical biology validation of tubulin agents as modulator of TRF1 levels. (J) Inhibition of TRF1 levels by the tubulin agents represented in (I), measured by immunofluorescence. (K) Western Blot (up) and quantification (down) of TRF1 protein levels in the h676 GSCs after 24 h treatment with 1 μM of the indicated compounds. Data are represented as mean±SD. n represents biological replicates. Statistical analysis: unpaired t-test.
# as §5
# The present inventors treated GSCs for 24 h at 1 μM concentration and assessed TRF1 protein levels by western blot.
# h676 GSCs [6] = test: Drug combination studies (sphere number and diameter) in h676 GSCs; assay type: cell-based, human; details: number and diameter of spheres, 7 days
# From the text: FIG. 51. […] (A-F) Quantification of number of spheres (up) and diameter (down) in h676 GSCs treated with the indicated compounds. Representative image of the spheres (left). Data are represented as mean±SD (up) or mean±SD (down), n represents biological replicates (up) or number of spheres (down). Statistical analysis: unpaired t-test.
# Using this concentration as a reference point, the present inventors designed a combinatorial matrix using different concentrations of the compounds (e.g. 2×GI50, GI50 and ½ GI50) to study all the possible combinations. Combination index is calculated to establish if the combination is synergistic, additive or antagonistic (FIG. 50A).
# [7] = tested on: K-Ras^G12V-induced lung tumors; details: p53-deficient background; cited from earlier work
smiles,measurement,setting,value
NC(Cc1ccccc1)c1csc(Nc2ncccn2)n1 (racemic) [ETP-50946],diameter of spheres,h543 GSCs,significant drastic reduction
same,number of spheres,h543 GSCs,significant drastic reduction
same,diameter of spheres,h676 GSCs [1],significant drastic reduction
same,number of spheres,h676 GSCs [1],significant drastic reduction
same,total TRF1 protein levels (western blot),TRF1 [2],effectively reduced
same,diameter of neurospheres,U251 cells,strong reduction
same,number of neurospheres,U251 cells,strong reduction
same,TRF1 foci (immunofluorescence),TRF1 [3],effectively reduced
COc1cc(Nc2ncc3c(n2)-c2ccc(Cl)cc2C(c2c(F)cccc2OC)=NC3)ccc1C(=O)O [Alisertib],dependence on p-AKT (p-AKT activation),p-AKT,act independently of p-AKT
same,inhibition of TRF1 protein levels / TRF1 modulation in the screening,TRF1 [4],inhibit TRF1 protein levels; also recorded: novel TRF1 modulators
same,degree of TRF1 inhibition (TRF1 protein levels by western blot),TRF1 [5],no ability to downregulate TRF1
CC(=O)O[C@@]12CO[C@@H]1C[C@H](O)[C@@]1(C)C(=O)[C@H](O)C3=C(C)[C@@H](OC(=O)[C@H](O)[C@@H](NC(=O)OC(C)(C)C)c4ccccc4)C[C@@](O)([C@@H](OC(=O)c4ccccc4)[C@H]21)C3(C)C [Docetaxel],"sphere formation, dose-response",h543 GSCs,most potent compounds
same,"sphere formation, dose-response",h676 GSCs [1],most potent compounds
same,synergic effect in combination with PI3Ki (ETP-47037),h676 GSCs [6],significant synergic effect
same,dependence on p-AKT (p-AKT activation),p-AKT,act independently of p-AKT
same,inhibition of TRF1 protein levels / TRF1 modulation in the screening,TRF1 [4],inhibit TRF1 protein levels; also recorded: novel TRF1 modulators
same,modulation of TRF1 levels by tubulin agents (validation),TRF1 [4],more strongly
same,degree of TRF1 inhibition (TRF1 protein levels by western blot),TRF1 [5],medium TRF1 modulators
Cc1cnc2c(N3CCOCC3)nc(-c3ccc(NC(=O)Nc4ccc(C(=O)N5CCN(C)CC5)cc4)cc3)cn12 [ETP-47228],diameter of spheres,h543 GSCs,significant drastic reduction
same,number of spheres,h543 GSCs,significant drastic reduction
same,diameter of spheres,h676 GSCs [1],significant drastic reduction
same,number of spheres,h676 GSCs [1],significant drastic reduction
same,total TRF1 protein levels (western blot),TRF1 [2],effectively reduced
same,growth of already established lung adenocarcinomas,[7],effectively impair the growth
same,diameter of neurospheres,U251 cells,strong reduction
same,number of neurospheres,U251 cells,strong reduction
same,TRF1 foci (immunofluorescence),TRF1 [3],effectively reduced
CN1CC[C@H](c2c(O)cc(O)c3c(=O)cc(-c4ccccc4Cl)oc23)[C@H](O)C1 [Flavopiridol],dependence on p-AKT (p-AKT activation),p-AKT,act independently of p-AKT
same,inhibition of TRF1 protein levels / TRF1 modulation in the screening,TRF1 [4],inhibit TRF1 protein levels; also recorded: novel TRF1 modulators
same,degree of TRF1 inhibition (TRF1 protein levels by western blot),TRF1 [5],medium TRF1 modulators
C[C@@H](Oc1cc(-n2cnc3ccc(CN4CCN(C)CC4)cc32)sc1C(N)=O)c1ccccc1C(F)(F)F [GSK461364],dependence on p-AKT (p-AKT activation),p-AKT,p-AKT dependent
same,inhibition of TRF1 protein levels / TRF1 modulation in the screening,TRF1 [4],inhibit TRF1 protein levels; also recorded: novel TRF1 modulators
same,degree of TRF1 inhibition (TRF1 protein levels by western blot),TRF1 [5],no ability to downregulate TRF1
Nc1ccn([C@@H]2O[C@H](CO)[C@@H](O)C2(F)F)c(=O)n1 [Gemcitabine],"sphere formation, dose-response",h543 GSCs,most potent compounds
same,"sphere formation, dose-response",h676 GSCs [1],most potent compounds
same,synergic effect in combination with PI3Ki (ETP-47037),h676 GSCs [6],significant synergic effect
same,dependence on p-AKT (p-AKT activation),p-AKT,act independently of p-AKT
same,inhibition of TRF1 protein levels / TRF1 modulation in the screening,TRF1 [4],inhibit TRF1 protein levels; also recorded: novel TRF1 modulators
same,degree of TRF1 inhibition (TRF1 protein levels by western blot),TRF1 [5],medium TRF1 modulators
COc1ccc(-c2ccc3c(N4CCOCC4)nc(N4C[C@@H](C)O[C@@H](C)C4)nc3n2)cc1CO [KU-0063794],dependence on p-AKT (p-AKT activation),p-AKT,p-AKT dependent
same,inhibition of TRF1 protein levels / TRF1 modulation in the screening,TRF1 [4],inhibit TRF1 protein levels; also recorded: novel TRF1 modulators
same,degree of TRF1 inhibition (TRF1 protein levels by western blot),TRF1 [5],medium TRF1 modulators
O=C(Nc1ccc2[nH]nc(-c3ccncc3)c2c1)[C@@H]1CCN(CC(=O)N2CCN(c3ccc(-c4ncccn4)cc3)CC2)C1 [SCH772984],synergic effect in combination with PI3Ki (ETP-47037),h676 GSCs [6],significant synergic effect
same,dependence on p-AKT (p-AKT activation),p-AKT,act independently of p-AKT
same,inhibition of TRF1 protein levels / TRF1 modulation in the screening,TRF1 [4],novel TRF1 modulators
same,inhibition of TRF1 protein levels / TRF1 modulation in the screening,TRF1 [4]; listed as ERKi,inhibit TRF1 protein levels
same,degree of TRF1 inhibition (TRF1 protein levels by western blot),TRF1 [5],potent TRF1 modulators
CC(=O)O[C@H]1C(=O)[C@@]2(C)[C@H]([C@H](OC(=O)c3ccccc3)[C@]3(O)C[C@H](OC(=O)[C@H](O)[C@@H](NC(=O)c4ccccc4)c4ccccc4)C(C)=C1C3(C)C)[C@]1(OC(C)=O)CO[C@@H]1C[C@@H]2O [paclitaxel],modulation of TRF1 levels by tubulin agents (validation),TRF1 [4],more strongly
